Values of other authors as cited in patent USRE30496E, “Tripeptide derivatives with central nervous system activity and preparation thereof” (Ayerst, McKenna & Harrison, Ltd., priority 1979, dated 1981).

Columns and labels:
[1] = test system: behavioral effects of (3,4-dihydroxyphenyl)-L-alanine (L-DOPA); details: literature (Plotnikoff 1971; Friedman 1973)
effects of oxotremorine = details: literature (Plotnikoff 1972)
mice = details: literature (Plotnikoff 1973)
monkeys = details: literature (Plotnikoff 1973)
[2] = in vivo

first step in the inactivation [2]: proteolytic cleavage of the Pro-Leu bond
Substance: H-L-prolyl-L-leucyl-glycinamide [H--Pro--Leu--Gly--NH2]
potentiation of the behavioral effects of L-DOPA [1]: potentiates the behavioral effects | antagonism of the effects of oxotremorine (effects of oxotremorine): antagonizes the effects of oxotremorine | reversal of the sedative effects of deserpidine (mice): reverses the sedative effects of deserpidine | reversal of the sedative effects of deserpidine (monkeys): reverses the sedative effects of deserpidine
